Target: T1, Polyunsaturated fatty acid 5-lipoxygenase (Homo sapiens, UniProt P09917)
T1 sequence (P09917 whole entry): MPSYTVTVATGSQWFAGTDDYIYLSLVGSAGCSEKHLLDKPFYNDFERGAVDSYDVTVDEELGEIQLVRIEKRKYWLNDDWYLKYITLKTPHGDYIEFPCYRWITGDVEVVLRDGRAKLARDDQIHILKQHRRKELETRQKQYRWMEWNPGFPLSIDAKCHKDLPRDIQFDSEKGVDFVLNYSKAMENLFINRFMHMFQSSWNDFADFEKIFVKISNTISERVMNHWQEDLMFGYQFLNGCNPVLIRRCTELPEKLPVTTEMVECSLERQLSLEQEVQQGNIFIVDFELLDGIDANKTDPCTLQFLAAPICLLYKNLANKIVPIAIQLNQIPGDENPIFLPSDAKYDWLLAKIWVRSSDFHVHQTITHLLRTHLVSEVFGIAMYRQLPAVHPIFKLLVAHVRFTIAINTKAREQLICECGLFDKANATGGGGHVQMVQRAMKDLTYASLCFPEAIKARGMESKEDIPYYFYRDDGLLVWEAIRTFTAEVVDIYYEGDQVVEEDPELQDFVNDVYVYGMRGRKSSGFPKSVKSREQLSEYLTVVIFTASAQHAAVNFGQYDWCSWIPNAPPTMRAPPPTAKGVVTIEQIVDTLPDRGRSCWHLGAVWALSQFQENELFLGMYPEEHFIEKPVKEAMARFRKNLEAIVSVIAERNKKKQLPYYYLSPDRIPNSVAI
Experiment: Inhibition of LT biosynthesis in vitro using A-23187-stimulated human whole blood.
Assay type: functional, tissue-based

| SMILES | IC50 [nM] |
| --- | --- |
| CN(c1ccc(Sc2cc(C3(C)COC(C)(C)O3)cs2)cc1)S(C)(=O)=O (stereo unspecified) | 160 |
| C/C(=N\O)c1ccc(Sc2cc(C3(C)COC(C)(C)O3)cs2)cc1 (stereo unspecified) | 40 |
| COC1(c2cc(Sc3ccc(N(C)C(C)=O)cc3)cc(F)c2C)CCOCC1 | 30 |
| CC(=O)N(C)c1ccc(Sc2cc([C@]3(C)COC(C)(C)O3)cs2)cc1 | 1180 |
| C/C(=N\O)c1ccc(S(=O)(=O)c2cc([C@@]3(C)COC(C)(C)O3)cs2)cc1 | 90 |
| COC1(c2cc(Sc3ccc(/C(C)=N/O)cc3)cc(F)c2C)CCOCC1 | 20 |
| C/C(=N\O)c1ccc(S(=O)(=O)c2ncc([C@@]3(C)COC(C)(C)O3)s2)cc1 | 200 |
| CC(=O)N(C)c1ccc(Sc2cc(C3(C)COC(C)(C)O3)cs2)cc1 (stereo unspecified) | 150 |
| CN1C(=O)CCc2ccc(Sc3cc(C4(C)COC(C)(C)O4)cs3)cc21 (stereo unspecified) | 100 |
| CC(=O)N(C)c1ccc(S(=O)(=O)c2cc(C3(C)COC(C)(C)O3)cs2)cc1 (stereo unspecified) | 840 |
| CN(C)S(=O)(=O)c1ccc(Sc2cc(C3(C)COC(C)(C)O3)cs2)cc1 (stereo unspecified) | 210 |
| CC(=O)c1ccc(Sc2ncc([C@@]3(C)COC(C)(C)O3)s2)cc1 | 390 |
| C/C(=N\OCC#N)c1ccc(Sc2cc([C@@]3(C)COC(C)(C)O3)cs2)cc1 | 10 |
| C/C(=N\OCC#N)c1ccc(S(=O)(=O)c2cc([C@@]3(C)COC(C)(C)O3)cs2)cc1 | 50 |
| COC1(c2cc(Sc3ccc4c(c3)CCC(=O)N4C)cc(F)c2C)CCOCC1 | 60 |
| CN1C(=O)COc2ccc(Sc3cc(C4(C)COC(C)(C)O4)cs3)cc21 (stereo unspecified) | 40 |
| C/C(=N\OCCN1CCOCC1)c1ccc(Sc2cc([C@@]3(C)COC(C)(C)O3)cs2)cc1 | 1510 |
| COC1(c2cc(Sc3ccc4c(c3)OCC(=O)N4C)cc(F)c2C)CCOCC1 | 40 |
| CO/N=C(\C)c1ccc(Sc2cc(C3(C)COC(C)(C)O3)cs2)cc1 (stereo unspecified) | 270 |
| CC1(C)OCC(C)(c2cccc(OCc3ccc4ccccc4c3)c2)O1 (stereo unspecified) | 350 |
| COC1(c2cc(Sc3ccc4c(c3)CCC(=O)N4C)sc2C)CCOCC1 | 20 |

Continued, values first:

| IC50 [nM] | SMILES |
| --- | --- |
| 30 | C/C(=N\OCC#N)c1ccc(Sc2ncc([C@@]3(C)COC(C)(C)O3)s2)cc1 |
| 40 | C/C(=N\O)c1ccc(Sc2cc([C@@]3(C)COC(C)(C)O3)cs2)cc1 |
| 140 | COC1(c2sc(Sc3ccc4c(c3)CCC(=O)N4C)nc2C)CCOCC1 |
| 120 | C/C(=N\OCC#N)c1ccc(S(=O)(=O)c2ncc([C@@]3(C)COC(C)(C)O3)s2)cc1 |
| 6210 | CC(=O)N(C)c1ccc(Sc2ncc([C@]3(C)COC(C)(C)O3)s2)cc1 |
| 40 | CC(=O)N(C)c1ccc(Sc2cc([C@@]3(C)COC(C)(C)O3)cs2)cc1 |
| 600 | CC(=O)c1ccc(Sc2cc(C3(C)COC(C)(C)O3)cs2)cc1 (stereo unspecified) |
| 40 | COC1(c2cc(S(=O)(=O)c3ccc4c(ccc(=O)n4C)c3)ccc2C)CCOCC1 |
| 130 | C/C(=N\O)c1ccc(Sc2ncc([C@@]3(C)COC(C)(C)O3)s2)cc1 |
| 20 | COC1(c2cc(OCc3ccc4c(ccc(=O)n4C)c3)cc(F)c2C)CCOCC1 |

— ChEMBL document CHEMBL1128582, “Chiral dioxolane inhibitors of leukotriene biosynthesis: structure-activity relationships and syntheses using asymmetric dihydroxylation” (J Med Chem, 1995)
